Experimental data published in ChEMBL document CHEMBL1201862, “PubChem BioAssay data set” (2004).
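Values below derive from 48-hour exposures of cells grown in 96-well plates, with endpoints linearly interpolated between the two concentrations bracketing the appropriate inhibition level. GI50 marks 50% less growth.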 Activity calls are given as the source filed them. Rule as the data show it: active = GI50 up to about 1.1 µM and inactive = higher.

Legend:
Assay in all cases: growth of human tumour cells (NCI), 48 h
LOX IMVI = tested on: LOX IMVI
UACC-257 = tested on: UACC-257
ACHN = tested on: ACHN
K562 = tested on: K562
SN12C = tested on: SN12C
NCI-H460 = tested on: NCI-H460
MDA-MB-231 = tested on: MDA-MB-231
NCI/ADR-RES = tested on: NCI/ADR-RES
PC-3 = tested on: PC-3
HCT-15 = tested on: HCT-15
SK-MEL-5 = tested on: SK-MEL-5
U-251 = tested on: U-251
HOP-62 = tested on: HOP-62
Malme-3M = tested on: Malme-3M
SW-620 = tested on: SW-620
IGROV-1 = tested on: IGROV-1
CAKI-1 = tested on: CAKI-1
SK-MEL-2 = tested on: SK-MEL-2
HCC 2998 = tested on: HCC 2998
RPMI-8226 = tested on: RPMI-8226

| SMILES | GI50 (LOX IMVI) | GI50 (UACC-257) | GI50 (ACHN) | GI50 (K562) | GI50 (SN12C) | GI50 (NCI-H460) | GI50 (MDA-MB-231) | GI50 (NCI/ADR-RES) | GI50 (PC-3) | GI50 (HCT-15) | GI50 (SK-MEL-5) | GI50 (U-251) | GI50 (HOP-62) | GI50 (Malme-3M) | GI50 (SW-620) | GI50 (IGROV-1) | GI50 (CAKI-1) | GI50 (SK-MEL-2) | GI50 (HCC 2998) | GI50 (RPMI-8226) |
| --- | --- | --- | --- | --- | --- | --- | --- | --- | --- | --- | --- | --- | --- | --- | --- | --- | --- | --- | --- | --- |
| Nc1nc(-c2ccccc2)c(-c2ccccc2)c(-c2nc(N)nc(-c3ccccc3)c2-c2ccccc2)n1 | > 100 µM (inactive) | > 100 µM (inactive) | > 100 µM (inactive) | > 100 µM (inactive) | > 100 µM (inactive) | 74.3 µM (inactive) | > 100 µM (inactive) | > 100 µM (inactive) | > 100 µM (inactive) | > 100 µM | > 100 µM (inactive) | > 100 µM (inactive) | > 100 µM (inactive) | > 100 µM (inactive) | > 100 µM (inactive) | > 100 µM (inactive) | > 100 µM (inactive) | > 100 µM (inactive) | 49 µM (inactive) |  |
| N[C@H]1CCN(c2c(F)cc3c(=O)c(C(=O)O)cn4c3c2Oc2c-4ccc3c2ccc2ccccc23)C1 | 0.56 µM (active) | 0.288 µM (active) | 0.23 µM (active) | 0.583 µM (active) | 0.774 µM (active) | 0.115 µM (active) | 4.91 µM (inactive) | 2.8 µM (inactive) | 0.935 µM (active) | 0.364 µM | 0.776 µM (active) | 0.121 µM (active) | 1.07 µM (active) | 16.9 µM (inactive) | 0.276 µM (active) | 0.284 µM (active) | 2.79 µM (inactive) | 9.77 µM (inactive) |  | 0.226 µM (active) |
| Oc1ccc(Cl)cc1/N=N\c1c(O)ccc2ccccc12 | 60.7 µM (inactive) | > 100 µM (inactive) | > 100 µM (inactive) | > 100 µM (inactive) | > 100 µM (inactive) |  | > 100 µM (inactive) | > 100 µM (inactive) | > 100 µM (inactive) | > 100 µM | 92.7 µM (inactive) | > 100 µM (inactive) | > 100 µM (inactive) | 22.2 µM (inactive) | > 100 µM (inactive) | > 100 µM (inactive) | > 100 µM (inactive) | > 100 µM (inactive) |  | > 100 µM (inactive) |
| COc1cccc2cc(C(=O)Nc3ccccc3)c(=N)oc12 | > 100 µM (inactive) | > 100 µM (inactive) | > 100 µM (inactive) | > 100 µM (inactive) | > 100 µM (inactive) | > 100 µM (inactive) | 13 µM (inactive) | > 100 µM (inactive) | > 100 µM (inactive) | > 100 µM | > 81.3 µM (inactive) | 67.6 µM (inactive) | > 58.5 µM (inactive) | > 100 µM (inactive) | > 100 µM (inactive) | 49.5 µM (inactive) |  | > 100 µM (inactive) |  | > 100 µM (inactive) |
| O=C1Nc2ccccc2S/C1=C\c1ccccc1C(F)(F)F | > 100 µM (inactive) | > 100 µM (inactive) | 15.1 µM (inactive) |  | > 100 µM (inactive) | 94.6 µM (inactive) | > 100 µM (inactive) | > 100 µM (inactive) | > 100 µM (inactive) | > 100 µM | > 100 µM (inactive) | 71.9 µM (inactive) | > 100 µM (inactive) | > 100 µM (inactive) | > 100 µM (inactive) | 29 µM (inactive) | 68.9 µM (inactive) | > 100 µM (inactive) |  | 64.1 µM (inactive) |
